ChEMBL document CHEMBL3885881, “DrugMatrix”

Species on record: Rattus norvegicus
Test: DrugMatrix - Regimen: Daily Repeat
Format: toxicity, organism-based, Sprague-Dawley
Parameters: regimen Daily Repeat, gender Male, age 6-8 weeks
Settings: in vivo, po, route oral GAVAGE, […]; for ABSOLUTE BASOPHIL / ABSOLUTE EOSINOPHIL / ABSOLUTE LYMPHOCYTE / ABSOLUTE MONOCYTE / ABSOLUTE SEGMENTED NEUTROPHIL / BASOPHIL / EOSINOPHIL / ERYTHROCYTE COUNT / HEMATOCRIT / HEMOGLOBIN / LEUKOCYTE COUNT / LYMPHOCYTE / MEAN CORPUSCULAR HEMOGLOBIN / MEAN CORPUSCULAR HEMOGLOBIN CONCENTRATION / MEAN CORPUSCULAR VOLUME / MONOCYTE / NEUTROPHIL / NUCLEATED RED BLOOD CELLS / PLATELET COUNT: tissue Blood; for ALANINE AMINOTRANSFERASE / ALBUMIN / ALKALINE PHOSPHATASE / ASPARTATE AMINOTRANSFERASE / BLOOD UREA NITROGEN / CARBON DIOXIDE / CHLORIDE / CHOLESTEROL / CREATINE PHOSPHOKINASE / CREATININE / GLUCOSE / LACTATE DEHYDROGENASE / LIPASE / PHOSPHORUS / POTASSIUM / SODIUM / TOTAL BILIRUBIN / TOTAL PROTEIN / URIC ACID: tissue Plasma
[1] = 0 mg/kg, 72 h, dose level Control, time 3 day
[2] = 0 mg/kg, 120 h, dose level Control, time 5 day
[3] = 72 h, dose 4.2 mg/Kg, dose level Low, time 3 day
[4] = 120 h, dose 4.2 mg/Kg, dose level Low, time 5 day

O=NN(CCCl)C(=O)NC1CCCCC1 [LOMUSTINE]
ABSOLUTE BASOPHIL [1]: 0 CELLS/uL | ABSOLUTE EOSINOPHIL [1]: 70.67 CELLS/uL | ABSOLUTE LYMPHOCYTE [1]: 12761.5 CELLS/uL | ABSOLUTE MONOCYTE [1]: 214.17 CELLS/uL | ABSOLUTE SEGMENTED NEUTROPHIL [1]: 987 CELLS/uL | BASOPHIL [1]: 0% | EOSINOPHIL [1]: 0.5% | ERYTHROCYTE COUNT [1]: 5.61 x10E6/uL | HEMATOCRIT [1]: 35.22% | HEMOGLOBIN [1]: 13.57 G/DL | LEUKOCYTE COUNT [1]: 14.03 x10E3/uL | LYMPHOCYTE [1]: 91% | MEAN CORPUSCULAR HEMOGLOBIN [1]: 24.25 pg | MEAN CORPUSCULAR HEMOGLOBIN CONCENTRATION [1]: 38.52 G/DL | MEAN CORPUSCULAR VOLUME [1]: 62.9 fL | MONOCYTE [1]: 1.5% | NEUTROPHIL [1]: 7% | NUCLEATED RED BLOOD CELLS [1]: 0 /100WBC | PLATELET COUNT [1]: 997.5 x10E3/uL | ALANINE AMINOTRANSFERASE [1]: 66.5 u/L | ALBUMIN [1]: 3.98 G/DL | ALKALINE PHOSPHATASE [1]: 350 u/L | ASPARTATE AMINOTRANSFERASE [1]: 83.83 u/L | BLOOD UREA NITROGEN [1]: 12.33 mg/dL | CARBON DIOXIDE [1]: 30.33 mmol/L | CHLORIDE [1]: 100 MEQ/L | CHOLESTEROL [1]: 75 mg/dL | CREATINE PHOSPHOKINASE [1]: 200 u/L | CREATININE [1]: 0.17 mg/dL | GLUCOSE [1]: 170 mg/dL | LACTATE DEHYDROGENASE [1]: 89.33 u/L | LIPASE [1]: 10.33 u/L | PHOSPHORUS [1]: 10.88 mg/dL | POTASSIUM [1]: 6.13 MEQ/L | SODIUM [1]: 140.53 MEQ/L | TOTAL BILIRUBIN [1]: 0.2 mg/dL | TOTAL PROTEIN [1]: 5.67 G/DL | URIC ACID [1]: 1.6 mg/dL | ABSOLUTE BASOPHIL [2]: 0 CELLS/uL | ABSOLUTE EOSINOPHIL [2]: 0 CELLS/uL | ABSOLUTE LYMPHOCYTE [2]: 9526.67 CELLS/uL | ABSOLUTE MONOCYTE [2]: 134.17 CELLS/uL | ABSOLUTE SEGMENTED NEUTROPHIL [2]: 922.5 CELLS/uL | BASOPHIL [2]: 0% | EOSINOPHIL [2]: 0% | ERYTHROCYTE COUNT [2]: 5.58 x10E6/uL | HEMATOCRIT [2]: 34.78% | HEMOGLOBIN [2]: 13.5 G/DL | LEUKOCYTE COUNT [2]: 10.58 x10E3/uL | LYMPHOCYTE [2]: 90.17% | MEAN CORPUSCULAR HEMOGLOBIN [2]: 24.27 pg | MEAN CORPUSCULAR HEMOGLOBIN CONCENTRATION [2]: 38.82 G/DL | MEAN CORPUSCULAR VOLUME [2]: 62.48 fL | MONOCYTE [2]: 1.17% | NEUTROPHIL [2]: 8.67% | NUCLEATED RED BLOOD CELLS [2]: 0.17 /100WBC | PLATELET COUNT [2]: 807.17 x10E3/uL | ALANINE AMINOTRANSFERASE [2]: 66.83 u/L | ALBUMIN [2]: 3.73 G/DL | ALKALINE PHOSPHATASE [2]: 286.17 u/L | ASPARTATE AMINOTRANSFERASE [2]: 142.33 u/L | BLOOD UREA NITROGEN [2]: 14.67 mg/dL | CARBON DIOXIDE [2]: 25.5 mmol/L | CHLORIDE [2]: 89.17 MEQ/L | CHOLESTEROL [2]: 75.17 mg/dL | CREATINE PHOSPHOKINASE [2]: 310.67 u/L | CREATININE [2]: 0.2 mg/dL | GLUCOSE [2]: 153 mg/dL | LACTATE DEHYDROGENASE [2]: 1594 u/L | LIPASE [2]: 14.83 u/L | PHOSPHORUS [2]: 11.28 mg/dL | POTASSIUM [2]: 8.46 MEQ/L | SODIUM [2]: 126.88 MEQ/L | TOTAL BILIRUBIN [2]: 0.37 mg/dL | TOTAL PROTEIN [2]: 5.53 G/DL | URIC ACID [2]: 1.52 mg/dL | ABSOLUTE BASOPHIL [3]: 0 CELLS/uL | ABSOLUTE EOSINOPHIL [3]: 32.67 CELLS/uL | ABSOLUTE LYMPHOCYTE [3]: 10341.33 CELLS/uL | ABSOLUTE MONOCYTE [3]: 0 CELLS/uL | BASOPHIL [3]: 0% | EOSINOPHIL [3]: 0.33% | ERYTHROCYTE COUNT [3]: 5.55 x10E6/uL | HEMATOCRIT [3]: 34.1% | HEMOGLOBIN [3]: 13.57 G/DL | LEUKOCYTE COUNT [3]: 10.97 x10E3/uL | LYMPHOCYTE [3]: 94.33% | MEAN CORPUSCULAR HEMOGLOBIN [3]: 24.43 pg | MEAN CORPUSCULAR HEMOGLOBIN CONCENTRATION [3]: 39.77 G/DL | MEAN CORPUSCULAR VOLUME [3]: 61.4 fL | MONOCYTE [3]: 0% | NEUTROPHIL [3]: 5.33% | NUCLEATED RED BLOOD CELLS [3]: 0 /100WBC | PLATELET COUNT [3]: 1095 x10E3/uL | ALANINE AMINOTRANSFERASE [3]: 51.33 u/L | ALBUMIN [3]: 3.83 G/DL | ALKALINE PHOSPHATASE [3]: 333.67 u/L | ASPARTATE AMINOTRANSFERASE [3]: 87.33 u/L | BLOOD UREA NITROGEN [3]: 11.33 mg/dL | CARBON DIOXIDE [3]: 25.67 mmol/L | CHLORIDE [3]: 103 MEQ/L | CHOLESTEROL [3]: 70 mg/dL | CREATINE PHOSPHOKINASE [3]: 944.67 u/L | CREATININE [3]: 0.19 mg/dL | GLUCOSE [3]: 199 mg/dL | LACTATE DEHYDROGENASE [3]: 127 u/L | LIPASE [3]: 10.33 u/L | PHOSPHORUS [3]: 11.7 mg/dL | POTASSIUM [3]: 5.37 MEQ/L | SODIUM [3]: 142.27 MEQ/L | TOTAL BILIRUBIN [3]: 0.1 mg/dL | TOTAL PROTEIN [3]: 5.5 G/DL | URIC ACID [3]: 1.6 mg/dL | ABSOLUTE BASOPHIL [4]: 0 CELLS/uL | ABSOLUTE EOSINOPHIL [4]: 32 CELLS/uL | ABSOLUTE LYMPHOCYTE [4]: 5295.33 CELLS/uL | ABSOLUTE MONOCYTE [4]: 16 CELLS/uL | ABSOLUTE SEGMENTED NEUTROPHIL [4]: 290 CELLS/uL | BASOPHIL [4]: 0% | EOSINOPHIL [4]: 0.67% | ERYTHROCYTE COUNT [4]: 5.43 x10E6/uL | HEMATOCRIT [4]: 33.87% | HEMOGLOBIN [4]: 13.53 G/DL | LEUKOCYTE COUNT [4]: 5.63 x10E3/uL | LYMPHOCYTE [4]: 94% | MEAN CORPUSCULAR HEMOGLOBIN [4]: 24.9 pg | MEAN CORPUSCULAR HEMOGLOBIN CONCENTRATION [4]: 39.97 G/DL | MEAN CORPUSCULAR VOLUME [4]: 62.43 fL | MONOCYTE [4]: 0.33% | NEUTROPHIL [4]: 5% | NUCLEATED RED BLOOD CELLS [4]: 0 /100WBC | PLATELET COUNT [4]: 1171.33 x10E3/uL | ALANINE AMINOTRANSFERASE [4]: 53.33 u/L | ALBUMIN [4]: 4.17 G/DL | ALKALINE PHOSPHATASE [4]: 336 u/L | ASPARTATE AMINOTRANSFERASE [4]: 97.33 u/L | BLOOD UREA NITROGEN [4]: 10 mg/dL | CARBON DIOXIDE [4]: 31.33 mmol/L | CHLORIDE [4]: 101 MEQ/L | CHOLESTEROL [4]: 63.33 mg/dL | CREATINE PHOSPHOKINASE [4]: 631.67 u/L | CREATININE [4]: 0.13 mg/dL | GLUCOSE [4]: 157 mg/dL | LACTATE DEHYDROGENASE [4]: 132 u/L | LIPASE [4]: 11 u/L | PHOSPHORUS [4]: 10.57 mg/dL | POTASSIUM [4]: 5.78 MEQ/L | SODIUM [4]: 147.05 MEQ/L | TOTAL BILIRUBIN [4]: 0.13 mg/dL | TOTAL PROTEIN [4]: 5.93 G/DL | URIC ACID [4]: 0.77 mg/dL
